# Experiments:
# [1] = Intravenous cocaine self-administration; format: in vivo, mice; details: 2, 6 or 12 mg/kg i.p.; cocaine 0.1-1 mg/kg/infusion
# Protocol: Once stable performance was achieved, self-administration was assessed once daily in 60 min sessions. Animals received vehicle (saline, i.p.) or SBI-553 (2, 6, or 12 mg/kg, i.p.) immediately prior to placement into self-administration chambers with access to cocaine at doses of 0.1, 0.3, 0.5, or 1 mg/kg/infusion. FIG. 7B-FIG. 7C show cocaine-induced and methamphetamine-induced hyperlocomotion.
# The effect of SBI-553 on cocaine self-administration was both cocaine-dose dependent and SBI-553-dose dependent. […] In the presence of β-arrestin2, SBI-553 reduced activity in mice. A 12 mg/kg (i.p.) dose of SBI-553 decreased both cocaine-and methamphetamine-induced hyperlocomotion in wild-type (WT) mice on a C57BL/6J background (FIG. 7B-FIG. 7C). […] Conversely, a significant reduction in locomotion was absent in global β-arrestin2 KO mice (Slosky L M, et al. (2020) Cell. 181(6):1364-1379e14).
# [2] = Plantar incision-induced post-operative pain (mechanical allodynia) in WT and Arrb2 KO mice; format: in vivo; details: 12 mg/kg IP
# [3] = Whole body plethysmography (respiratory depression); format: in vivo, mice
# Description: Third, plethysmography is used to examine whether SBI-553 and IND ready analog SBI-810 can be administered to mice intraperitoneally, intravenously, or intrathecally without respiratory depression. Using plethysmography determine whether SBI-553 and IND ready analog SBI-810 can be administered to mice (e.g., C57BL6J) intraperitonially, intravenously, or intrathecally without respiratory depression. […] The “Buxco FinePointe Whole Body Plethysmography 4-Site System” was used to assess whether any IND analogs like the SBI-810 in the same system following intraperitoneal, intravenous, or intrathecal administration. Here. C57BL6J mice are assessed using UWBP, a technique that provides a, non-invasive, quantitative means to assess and analyze respiratory parameters. This will include tidal volume, minute volume, inspiratory duty cycle, inspiratory flow rate and the ratio of inspiration time to expiration time using a repeated measures approach to determine lung function on the same animal under multiple treatment conditions.
# [4] = mouse, in vivo; cited from earlier work
# [5] = biological target: T1, NTSR1 (Homo sapiens, UniProt P30989); assay: Confocal β-arrestin2 translocation assay in U2OS cells expressing NTSR1 and β-arrestin2-GFP; format: cell-based; set-up: expressed in transfected cells; also transient transfection; details: compared with NT
# Protocol: Scale bar, […]. […] The ordinate axis in counts per minute (CPM) represents specifically bound ^125I-NT. In each experiment, the assays were conducted in quadruplicate, and data are expressed as the mean+SEM (n=4 separate experiments) and were analyzed using one-way ANOVA with Tukey's multiple comparison post hoc test. Curve fitting and statistical analyses were performed using GraphPad Prism V5.04.
# The translocation of β-arrestin2 to the membrane by NTSR1 was assessed using a U2OS cell line permanently expressing the NTSR1 and green fluorescent protein (GFP) tagged-β-arrestin2, as described (Barak et al., 2016). Briefly, on day 1, stable cells were split into MGB101-1-2-LG glass-bottom 384-well plates (MatriCal, Spokane, WA, USA). Each well contained 30) mL aliquots of 8,000 cells in Minimum Eagle's medium (MEM) containing 10% fetal bovine serum (FBS) and 100 U/mL penicillin/streptomycin (Life Technologies, Grand Island, NY, USA). The plates were incubated overnight at 37°° C, in 5% CO2, and on the following day the media was changed to […] serum-and phenol red-free MEM. […] After treatment, plates were returned to the incubator for 40 min. […] Images were analyzed using a wavelet algorithm to measure formation of fluorescence aggregates (Evron et al., 2014). […] Analyzed image results were visually confirmed. […]
# Target sequence in this assay (P30989 whole entry): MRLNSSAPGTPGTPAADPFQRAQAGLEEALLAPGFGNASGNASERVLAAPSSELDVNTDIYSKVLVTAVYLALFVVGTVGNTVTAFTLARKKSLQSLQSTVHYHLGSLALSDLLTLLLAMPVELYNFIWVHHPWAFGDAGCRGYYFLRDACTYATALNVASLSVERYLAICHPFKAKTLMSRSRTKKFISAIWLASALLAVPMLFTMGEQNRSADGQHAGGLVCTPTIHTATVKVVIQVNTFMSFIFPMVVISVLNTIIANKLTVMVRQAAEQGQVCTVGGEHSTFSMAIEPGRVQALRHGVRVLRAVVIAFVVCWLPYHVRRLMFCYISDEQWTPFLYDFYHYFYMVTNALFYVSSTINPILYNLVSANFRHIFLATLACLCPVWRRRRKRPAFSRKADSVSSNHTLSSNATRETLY
# Target sequence in this assay (P32121 whole entry partner): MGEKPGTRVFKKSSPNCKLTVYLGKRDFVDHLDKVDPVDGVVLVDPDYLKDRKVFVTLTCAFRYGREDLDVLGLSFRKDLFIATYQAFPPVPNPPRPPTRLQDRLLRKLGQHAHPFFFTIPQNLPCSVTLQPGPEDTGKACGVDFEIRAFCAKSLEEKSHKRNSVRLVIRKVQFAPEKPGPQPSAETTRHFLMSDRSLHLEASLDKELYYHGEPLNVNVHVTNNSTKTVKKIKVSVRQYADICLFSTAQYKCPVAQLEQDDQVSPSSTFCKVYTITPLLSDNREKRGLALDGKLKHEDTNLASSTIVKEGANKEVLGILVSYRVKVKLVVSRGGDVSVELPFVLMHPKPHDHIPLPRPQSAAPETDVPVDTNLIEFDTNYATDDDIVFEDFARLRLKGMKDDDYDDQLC
# [6] = biological target: T1, NTSR1; assay: Cellular assay of β-arrestin-2 translocation in cells expressing NTSR1; format: cell-based; set-up: expressed in transfected cells; host or cells: HEK293T cell membranes
# Protocol: First, using cellular assays, whether IND candidates such as SBI-810 are similar or better than SBI-553 as β-arrestin biased agonist at NTSR1. is assessed. The chemical entities used in this work were synthesized and validated. However, routine validation of the profile of these compounds is performed routinely using both cellular and in vivo assays. For example, HEK293 cells that express either the NTSR1 or NTSR2 are used to assess the functional profile of the various chemical probes. In addition, a series of genetically engineered mouse lines are used to provide an in vivo validation of novel chemical entities for their abilities to module behaviors in these animals.
# Fourth, cellular assays are used to establish that IND ready analogs like SBI-810 are still selective for the NTSR1 rather than NTSR2. The specificity of the lead compounds toward NTSR1. NTSR2. and β-arrestin-2 are tested in respective cellular assays. More specifically, cells expressing either NTSR1 or NTSR2 are used to assess the function of various compound. […] This translocation is not observed in cells expressing NTSR2.
# Fourth, genetically engineered mice are used to assess the effects and mechanisms of novel ligands. The specificity of the lead compounds toward NTSR1, NTSR2, and β-arrestin-2 dependent signaling is examined. […]
# Target sequence in this assay (P30989 whole entry): as the sequence (P30989 whole entry) above
smiles,measurement,setting,value
COc1ccccc1C1CCN(c2nc(C3(F)CC3)nc3ccc(N(C)CCO)cc23)CC1 [SBI-553],Cocaine self-administration,[1],maintenance intake reduction
same,Duration of analgesic effect,[2],more than 4.5 hr
same,Time after injection at which analgesic effect was observed,[2],2 h
same,Plantar incision-induced mechanical allodynia,[2]; Arrb2 KO mice,not
same,Plantar incision-induced mechanical allodynia,[2]; WT mice,significantly reduced
same,Breathing frequency or tidal volume,[3]; on its own,had no effect
same,Reduction in breathing frequency or tidal volume produced by morphine,[3]; with morphine,did not exacerbate
same,Methamphetamine conditioned place preference,[4],reduced
same,Intracellular translocation of β-arrestin,[5],as effective as NT
same,Translocation of β-arrestin-2 to intracellular compartments,[6],demonstrate translocation of β-arrestin-2
